This passage reports IC50 results from patent publication US7838528B2, “Substituted bicyclic 8-pyrrolidinoxanthines, methods for their production, pharmaceutical formulations and their use” (sanofi-aventis Deutschland GmbH, priority 2004, dated 2010).

The test deals with T1, DPP-IV from porcine kidney (Sus scrofa, UniProt P22411).
T1 construct: DPP-IV from porcine kidney (Sigma Chemical GmbH, Munich DE); purchased Sigma Chemical GmbH, Munich DE; host or cells: porcine kidney (tissue-derived enzyme)
The test can be described thus: Measurement of the DPP-IV activity (H-Ala-Pro-AFC fluorimetric assay). It counts as biochemical. The note with it: H-Ala-Pro-AFC 15 μM, DPP-IV 1 mU/ml, Tris/HCl pH 7.4, room temperature. How it is done:
Measurement of the DPP-IV Activity: […]
a) DPP-IV from porcine kidney (Sigma Chemical GmbH, Munich DE) b) H-Ala-Pro-AFC (Bache Chemical Co., Weil am Rheine DE) […]
c) DPP-IV (1 mU/ml, final concentration) d) H-Ala-Pro-AFC (15 μM, final concentration) • in Tris/HCl (40 mM, pH 7.4), total volume 0.2 ml The reaction was carried out at room temperature at different reaction times (typically 10 min) and stopped at the end of the reaction by adding 20 μl of ZnCl2 (1 M). The H-Ala-Pro-AFC conversion was determined fluorimetrically by measuring the emission at 535 nm after excitation at 405 nm. When inhibitors were added, the added buffer volume was adapted so that a total volume of 200 μl was maintained for the assay mixture.
IC50 values for inhibitors were determined by varying the inhibitor concentrations with the stated substrate concentration of 15 μM. Ki and Km values were found by appropriate variation of substrate concentration and inhibitor concentration as described (Dixon, M. and Webb, E. C. (1979) Enzymes, third edition, pp. 47-206, Academic Press) which is herein incorporated by reference. The values for Km, IC50 and Ki were calculated using a commercially available software package (Leatherbarrow, R. J. (1992) GraFit Version 3.0, Erithacus Software Ltd. Staines, U.K.).

The structures appear in SMILES notation. Where a name gives a salt, the structure may show the parent alone.

The term IC50 denotes the midpoint of a concentration-inhibition curve. Lower therefore signals inhibition by little substance.

T1 sequence (P22411 whole entry): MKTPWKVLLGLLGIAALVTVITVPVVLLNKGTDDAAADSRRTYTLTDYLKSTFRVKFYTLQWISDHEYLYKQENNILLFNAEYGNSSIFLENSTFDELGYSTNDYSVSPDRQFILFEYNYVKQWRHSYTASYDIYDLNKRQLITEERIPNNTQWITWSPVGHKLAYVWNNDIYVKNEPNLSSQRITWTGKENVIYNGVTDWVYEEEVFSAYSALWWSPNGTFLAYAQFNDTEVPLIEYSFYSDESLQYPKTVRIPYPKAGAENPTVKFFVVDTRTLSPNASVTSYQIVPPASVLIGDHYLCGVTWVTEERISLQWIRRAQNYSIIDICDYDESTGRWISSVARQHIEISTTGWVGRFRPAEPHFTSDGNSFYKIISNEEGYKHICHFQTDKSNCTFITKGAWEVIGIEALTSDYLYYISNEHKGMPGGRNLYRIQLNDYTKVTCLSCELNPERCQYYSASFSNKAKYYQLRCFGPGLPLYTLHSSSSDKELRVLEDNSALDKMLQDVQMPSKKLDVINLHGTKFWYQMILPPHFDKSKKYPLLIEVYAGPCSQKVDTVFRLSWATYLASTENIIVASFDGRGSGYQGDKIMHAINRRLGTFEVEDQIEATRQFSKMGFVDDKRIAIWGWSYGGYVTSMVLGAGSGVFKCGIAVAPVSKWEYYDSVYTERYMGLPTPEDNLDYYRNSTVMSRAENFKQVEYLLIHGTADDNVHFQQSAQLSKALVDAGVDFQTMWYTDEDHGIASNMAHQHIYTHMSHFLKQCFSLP

`CC(C)=CCn1c(N2CC[C@@H]3NCC[C@@H]32)nc2c1c(=O)n(CC(=O)c1ccccc1)c(=O)n2C` (relative stereo) [Example 1, 8-(cis-Hexahydro-pyrrolo[3,2-b]pyrrol-1-yl)-3-methyl-7-(3-methyl-but-2-enyl)-1-(2-oxo-2-phenyl-ethyl)-3,7-dihydropurine-2,6-dione hydrochloride] gave a concentration for half-maximal inhibition (IC50) of 34 nM.
With `CC(C)=CCn1c(N2CC[C@@H]3NCC[C@@H]32)nc2c1c(=O)n(CC(=O)c1ccccc1)c(=O)n2C` (single isomer, unassigned) [Example 1a, 8-(cis-Hexahydro-pyrrolo[3,2-b]pyrrol-1-yl)-3-methyl-7-(3-methyl-but-2-enyl)-1-(2-oxo-2-phenyl-ethyl)-3,7-dihydro-purine-2,6-dione], the concentration for half-maximal inhibition (IC50) stood at 160 nM.
The molecule `CC(C)=CCn1c(N2CC[C@@H]3NCC[C@@H]32)nc2c1c(=O)n(CC(=O)c1ccccc1)c(=O)n2C` (single isomer, unassigned) [Example 1b, 8-(cis-Hexahydro-pyrrolo[3,2-b]pyrrol-1-yl)-3-methyl-7-(3-methyl-but-2-enyl)-1-(2-oxo-2-phenyl-ethyl)-3,7-dihydro-purine-2,6-dione] returned an IC50 of 18 nM.
